Laboratory results taken from patent US20110143197A1, “ELECTRODE ACTIVE MATERIAL FOR POWER STORAGE DEVICE AND POWER STORAGE DEVICE, AND ELECTRONIC EQUIPMENT AND TRANSPORTATION EQUIPMENT” (priority 2008, published 2011).

Legend:
[1] = Solubility in an electrolyte (ultraviolet-visible absorption spectrum and visual inspection), Test Example 1; format: physicochemical; conditions: 5.0 mmol/l in 1.0 mol/L lithium fluoroborate in propylene carbonate
Method: The solubility of the phenanthrenequinone-containing compounds and the phenanthrenequinone-containing polymers obtained in Examples 1 to 10 in an electrolyte was evaluated in the following manner.
A phenanthrenequinone-containing compound or a phenanthrenequinone-containing polymer as obtained in Examples 1 to 10 was mixed with 20 cc of an electrolyte so as to attain a concentration of 5.0 mmol/l, thereby giving a test liquid. This test liquid was subjected to ultraviolet-visible absorption spectrum measurement to examine the solubility of each compound in the electrolyte. The ultraviolet-visible absorption spectrum measurement was performed under the following measurement conditions: a measurement range of 190 to 900 nm and a reference solution of a liquid electrolyte. A UV-2550 (trade name) manufactured by SHIMADZU CORPORATION was used as the measurement apparatus. A liquid electrolyte prepared by dissolving lithium fluoroborate in a concentration of 1.0 mol/L in propylene carbonate was used as the electrolyte.
As a comparative example, a solubility test was performed in the same manner as described above using 9,10-phenanthrenequinone.

[2] = Coin battery charge-discharge test (metal lithium negative electrode), Test Example 3
From the text: A coin battery as shown in FIG. 5 was fabricated as one example of the power storage device of the present invention. FIG. 5 is a vertical cross-sectional view schematically showing a configuration of a coin battery 1 that is one example of the power storage device of the present invention.
A positive electrode includes a positive electrode current collector 12 made of an aluminum foil and a positive electrode active material layer 13 formed on the positive electrode current collector 12 and containing the phenanthrenequinone-containing compound (1a). The positive electrode was produced in the same manner as in the electrode production method in Test Example 2. This positive electrode was disposed such that the positive electrode current collector 12 was brought into contact with the inner surface of a case 11, and a separator 14 made of a porous polyethylene sheet was placed on the positive electrode.
Then, a non-aqueous electrolyte was injected into the case 11. As the non-aqueous electrolyte, an electrolyte prepared by dissolving lithium hexafluorophosphate in a concentration of 1.25 mol/L in a solvent mixture containing ethylene carbonate and ethylmethyl carbonate (weight ratio 1:3) was used. […]
The charge-discharge capacity was calculated based on the initial discharge capacity of each of the coin batteries. […]

[3] = Cyclic voltammetry of evaluation battery (electrode properties), Test Example 2; format: physicochemical
Method: The electrode properties of the phenanthrenequinone-containing compound (1a) obtained in Example 1 were examined in the following manner. First, in an argon box equipped with a gas purifier, 20 mg of the phenanthrenequinone-containing compound (1a) serving as an electrode active material and 20 mg of acetylene black serving as a conductive auxiliary agent were uniformly mixed under an argon gas atmosphere. To the resultant mixture was added 1 ml of N-methyl-2-pyrrolidone serving as a solvent, and 5 mg of polyvinylidene fluoride serving as a binder was further added thereto, followed by uniform mixing, to prepare a black slurry. The binder was used in order to bond the electrode active material and the conductive auxiliary agent together.
The slurry thus obtained was applied to the surface of a 20 μm-thick aluminum foil (current collector), and vacuum-dried for 2 hours at room temperature. After drying, a disc having a diameter of 13.5 mm was punched out of the resultant structure to produce an electrode in which an active material layer containing a mixture of the electrode active material, the conductive auxiliary agent, and the binder was formed.
The electrode thus obtained was used as a working electrode, and metal lithium was used for a counter electrode and a reference electrode. These electrodes were immersed in an electrolyte to fabricate an evaluation battery, and the potential sweeping was performed in a potential range from 2.0 to 4.0 V relative to lithium. The sweeping rate was 0.1 mV/sec. As the electrolyte, a liquid electrolyte prepared by dissolving lithium fluoroborate in a concentration of 1.0 mol/L in a solvent mixture containing propylene carbonate and ethylene carbonate (volume ratio 1:1) was used. FIG. 4 is a cyclic voltammogram of the evaluation battery using the electrode active material of the present invention [phenanthrenequinone-containing compound (1a)].

[4] = relative to lithium, sweep 2.0 to 4.0 V, 0.1 mV/sec

Row | Compound | observation by visual inspection of electrolyte (coloration, dissolution) [1] | absorption peak in ultraviolet-visible absorption spectrum of test liquid (solubility in electrolyte) ([1]; measurement range 190 to 900 nm) | appearance of electrolyte when battery disassembled after charging and discharging [2] | reversibility of redox reaction ([3]; cyclic voltammogram, FIG. 4) | dissolution from the electrode ([3]; during potential sweeping in liquid electrolyte) | current peak indicating the oxidation reaction [3, 4] | current peak indicating the second-step reduction reaction [3, 4] | current peak indicating the first-step reduction reaction ([3]; relative to lithium, sweep 2.0 to 4.0 V, 0.1 mV/sec, 1.0 mol/L lithium fluoroborate in propylene carbonate/ethylene carbonate 1:1)
1 | O=C1C(=O)c2ccccc2-c2ccccc21 [9,10-phenanthrenequinone] | colored in yellow, as a result of the compound being entirely dissolved in the electrolyte | a large absorption peak was observed near 250 to 350 nm | green coloration of the electrolyte |  |  |  |  | 
2 | O=C1C(=O)c2cc(-c3ccc(-c4ccc5c(c4)C(=O)C(=O)c4ccccc4-5)cc3)ccc2-c2ccccc21 [Compound 1a, 1,4-(9,10-phenanthraquinone)-benzene] |  |  |  | underwent a reversible redox reaction | no dissolution | around 3.5 V | around 2.6 V | around 3.1 V
